Experimental data: US5344841A, “Bis-(hydroxylakylamino)-anthraquinone inhibitors of protein kinase C” (Sphinx Pharmaceuticals Corporation, priority 1992, dated 1994)
Counter-ions that a name gives are not always drawn. Like-named read-outs stand apart in the source and are kept apart here.

How the values were obtained:
protein kinase C = experiment: Protein kinase C (PKC) inhibition assay (histone H1 phosphorylation); assay type: biochemical; settings: rat brain PKC, histone H1 substrate
Method: The protein kinase C (PKC) assay is designed to duplicated the in vivo conditions required for protein kinase C function. Therefore, pH, salt and cofactor concentrations are similar to physiologic levels. Histone H1 (lysine rich) is used in the assay as the phosphorylation acceptor protein because it is readily available and serves as a good substrate for protein kinase C. The enzyme is prepared from rat brain and is purified to apparent homogeneity as determined by a single band on silver stained SDS-polyacrylamide. Studies on the mechanism of regulation of protein kinase C by phospholipids, DAG and Ca^+2 have been hampered by the physical properties of the lipid cofactors. In the screening assay, phosphatidylserine (PS) and DAG are cosonicated to form unilamellar and multilamellar vesicles. The concentration of lipids in the assay are suboptimal to maximize the detection potential of the assay for inhibitors. […] The assay is started with the addition of enzyme and stopped after 10 min by the addition of 25% trichloroacetic acid (TCA) and 1.0 mg/ml bovine serum albumin (BSA). The radioactive histone product is retained and washed on glass fiber filters that allow the unreacted ^32 P-ATP to pass through. The amount of phosphorylation is determined by the radioactivity measured in a scintillation counter. Controls are included in every assay to measure background activity in the absence of enzyme, activity in the absence of lipids and the maximum enzyme activity with saturating levels of the activator lipids.

[1] = system: 8226 human myeloma cell line; experiment: Human tumor growth inhibition, 3H-thymidine incorporation, 8226; assay type: cell-based; settings: read-out: IC50 8226
Excerpt: (§1) MCF-7 a human breast tumor cell line, and MCF-7/ADR an adriamycin resistant line of MCF-7 cells were obtained from the National Cancer Institute, Frederick, Md. NHEK a human keratinocyte cell line was obtained from Clonetic Corp., San Diego, Calif. 8226 a human myeloma cell line, 8226/MT a Mitoxantrone resistant line of 8226 cells, and 8226 ADR an adriamycin resistant line of 8226 cells were obtained from Dr. Bill Dalton, Arizona Cancer Center, Tuscon, Ariz.
(§2) Human tumor cells are trypsinized (0.05% trypsin, GIBCO), counted with a hemacytometer and seeded at a concentration of 10,000 cells/well in a 96 well microtiter plate. After allowing cells to attach to the surface overnight, the culture medium is aspirated and replaced with 100 μl of fresh medium. Test agents are diluted to determine dose response at 2× final concentration and added in quadruplicate at 100 μl/well to bring the total volume of each well to 200 μl. The microtiter plate is then incubated at 37° C. 5% CO2 overnight (18-24 hrs) before ^3 H-thymidine is added at a concentration of 0.5 μCi/well in 50 μl culture medium. The plate is incubated again for 4 hrs under the same conditions as above. Supernatant is then aspirated and 50 μl trypsin (0.05%, GIBCO) is added to each well. Cells are checked microscopically to determine detachment from surfaces, and plates are then harvested with a cell harvester (PHD, Cambridge Technology, Inc.) Filter papers corresponding to wells are placed in scintillation vials and counted to determine the amount of ^3 H-thymidine incorporated by the cells. Test agent response is compared to a positive control of cell wells with culture media only to determine the IC50. IC50 is the concentration of test compound required to inhibit fifty percent of the incorporation of ^3 H-thymidine into proliferating cells not exposed to test agent. Uptake of ^3 H-thymidine is a standard test for measuring the metabolism of cells. Cells which are actively proliferating take up ^3 H-thymidine, whereas cells that are not proliferating take up ^3 H-thymidine at much slower rates or not at all. Test agents that inhibit the uptake of ^3 H-thymidine thus slow the growth of cells.

[2] = system: 8226/ADR adriamycin resistant line of 8226 cells; experiment: Human tumor growth inhibition, 3H-thymidine incorporation, 8226/ADR; assay type: cell-based; settings: 8226/ADR vs 8226
Excerpt: as §1, §2

[3] = system: 8226/ADR adriamycin resistant line of 8226 cells; experiment: as above; assay type: cell-based; settings: 3H-thymidine uptake
[4] = system: MCF-7/ADR adriamycin resistant line of MCF-7 cells; experiment: Human tumor growth inhibition, 3H-thymidine incorporation, MCF-7/ADR; assay type: cell-based; settings: NCI/ADR-RES, 3H-thymidine uptake
[5] = system: 8226/MT Mitoxantrone resistant line of 8226 cells; experiment: Human tumor growth inhibition, 3H-thymidine incorporation, 8226/MT; settings: for Resistance Ratio (8226/MT): 8226/MT vs 8226; for IC50: Homo sapiens, read-out: IC50 8226/MT
[6] = system: MCF-7 human breast tumor cell line; experiment: Human tumor growth inhibition, 3H-thymidine incorporation, MCF-7; assay type: cell-based; settings: Homo sapiens, MCF7, 3 h, read-out: IC50 MCF-7
Excerpt: as §1, §2

[7] = system: MCF-7/ADR adriamycin resistant line of MCF-7 cells; experiment: Human tumor growth inhibition, 3H-thymidine incorporation, MCF-7/ADR; assay type: cell-based; settings: MCF-7/ADR vs MCF-7
Excerpt: as §1, §2

human neutrophils = experiment: Neutrophil superoxide anion (O2-) release assay, PMA-stimulated; assay type: cell-based; settings: PMA-stimulated O2- production
Method: Neutrophils were isolated form whole blood collected from human volunteers. All reagent materials were obtained from Sigma Chemical Company with the exception of isotonic saline (Travenol Lab., Inc. Deerfield, Ill.) and lymphocyte separation medium (Organon Teknika, Durham, N.C.). Whole blood was drawn and mixed with sodium heparin (final conc. 10 units/ml) to prevent clotting. An equal volume of dextran (3.0%) in isotonic saline was added, mixed, and allowed to settle for 30 min to bind red blood cells (RBC). The supernatant was removed, underlayered with lymphocyte separation medium and centrifuged for 40 min at 400 xg in a centrifuge (Beckman GPR, Norcross, Ga.). […] The washed pellet was resuspended in 10 ml HBSS and placed on ice before counting on a hemacytometer. The neutrophil cell concentration is adjusted to 2×10^6 cells/ml with HBSS before adding 0.8 ml cells to 12×75 mm polypropylene test tubes (Fisher Scientific). Test agents are diluted to determine dose response and added at 10×final concentration at a volume of 0.1 ml/tube in duplicate. […] Tubes are then centrifuged at 900 xg for 10 min, 0.5 ml supernatant is removed and added to 0.5 ml H2 O in a microcuvette. Optical density (OD) of cytochrome c is read in a spectrophotometer (Shimadzu) at 550 nm. The ΔOD of cytochrome c is obtained between PMA-stimulated and non-stimulated tubes, and the dose responses of the test agents are compared to the positive controls (which contain HBSS in place of test agents). PMA stimulates O2^- production which reduces cytochrome c. Reducing cytochrome c increases its absorbance, and the change in OD of cytochrome c is proportional to the amount of O2^- produced by PMA stimulation. Inhibition of the O2^- burst by test compounds of the invention is seen as a reduction in the change in optical density. Inhibition is expressed as IC50 μM and is the amount of test compound that will inhibit fifty percent of the PMA-stimulated respiratory outburst, i.e. O2^- production.

Compound | IC50 (protein kinase C) [µM] | IC50 ([1]; 3H-thymidine uptake) [µM] | IC50 [3] [µM] | IC50 [4] [µM] | Resistance Ratio (IC50 MCF-7/ADR to IC50 MCF-7) [7] | IC50 ([6]; 3H-thymidine uptake) [µM] | Resistance Ratio (8226/ADR) [2] | other results
COc1cccc2c1C(=O)c1c(O)c3c(c(O)c1C2=O)C[C@@](O)(C(=O)CO)C[C@@H]3O[C@H]1C[C@H](N)[C@H](O)[C@H](C)O1 [ADR, reference compound] | – | – | 0.57 | 4 | 200 | – | 11.4 | Resistance Ratio (8226/MT) [5]: 1; IC50 [5]: 0.05 µM; IC50 [1]: 0.05 µM; IC50 [6]: 0.02 µM
O=C1c2c(O)ccc(O)c2C(=O)c2c(NCCNCCO)ccc(NCCNCCO)c21 [MT, reference compound] | – | 0.03 | 0.18 | 4 | 800 | 0.005 | 6 | Resistance Ratio (8226/MT) [5]: 3.5; IC50 [5]: 0.105 µM
CCN(CC)CC(O)CNc1ccc(NCC(O)CCl)c2c1C(=O)c1ccccc1C2=O (stereo not drawn) [1a-1 (base), 1-(3-diethylamino-2-hydroxypropylamino)-4-(chloro-2-hydroxypropylamino)-9,10 anthracenedione] | 180 | – | – | – | – | – | – | IC50 (human neutrophils; Homo sapiens, Neutrophil): > 6.25 µM
O=C1c2ccccc2C(=O)c2c(NCC(O)CNCc3ccccc3)ccc(NCC(O)CCl)c21 (stereo not drawn) [Compound 1a-3] | – | 15 | 16.3 | 14.1 | 1.9 | 7.4 | 1.08 | –
CCN(CC)CC(O)CNc1ccc(NCC(O)CCl)c2c1C(=O)c1ccccc1C2=O (stereo not drawn) [1a-1 (HCl), 1-(3-Diethylamino-2-Hydroxypropylamino)-4-(3-Chloro-2-Hydroxypropylamino)-9, 10-Anthracenedione Hydrochloride Salt] | – | – | – | – | – | – | – | IC50 (protein kinase C; Hydrochloride Salt): 230 µM; IC50 (protein kinase C; listed as 1a-1 (HCl salt), Hydrochloride Salt): 230 µM; IC50 (human neutrophils; Hydrochloride Salt): > 12.5 µM
O=C1c2ccccc2C(=O)c2c(NCC(O)CNCc3ccccc3)ccc(NCC(O)CCl)c21 (stereo not drawn) [1a-3 (HCl)] | 110 | – | – | – | – | – | – | –

Further lines, with some results ahead:

IC50 (protein kinase C) [µM] | IC50 ([1]; 3H-thymidine uptake) [µM] | IC50 [3] [µM] | IC50 [4] [µM] | Resistance Ratio (IC50 MCF-7/ADR to IC50 MCF-7) [7] | IC50 ([6]; 3H-thymidine uptake) [µM] | Compound | Resistance Ratio (8226/ADR) [2] | other results
160 | – | – | – | – | – | CCCNCC(O)CNc1ccc(NCC(O)CCl)c2c1C(=O)c1ccccc1C2=O (stereo not drawn) [1a-2 (HCl)] | – | –
– | 18 | 25 | – | – | – | CCN(CC)CC(O)CNc1ccc(NCC(O)CO)c2c1C(=O)c1ccccc1C2=O (stereo not drawn) [Compound 1c-1] | 1.4 | –
– | 10.2 | 14.1 | 16 | 2.2 | 7.4 | CCCNCC(O)CNc1ccc(NCC(O)CCl)c2c1C(=O)c1ccccc1C2=O (stereo not drawn) [Compound 1a-2] | 1.38 | –
180 | – | – | – | – | – | CCN(CC)CC(O)CNc1ccc(NCC(O)CO)c2c1C(=O)c1ccccc1C2=O (stereo not drawn) [1c-1 (HCl), 1-(3-Diethyl-2-Hydroxypropylamino)-4-(2,3-Dihydroxypropylamino)-9, 10-Anthracenedione Hydrochloride Salt] | – | –
